In article PMC10791743, “Selective CK1α degraders exert antiproliferative activity against a broad range of human cancer cell lines” (Nature Communications, 2024):
Values joined by “and” are separate entries in the source; they are usually repeats but may differ in a detail not shown here. Identical values can stand only once.

Key:
IKZF1 = target: T1, IKZF1 (Homo sapiens, UniProt Q13422+Q96SW2); experiment: IKZF1 HiBiT live-cell kinetic degradation assay (Jurkat cells); type: cell-based; details: for IKZF1 Percent Maximum Degradation: 10 uM, replicates; for Dmax at 10 µM: over 24 h, read-out: IKZF1 Dmax (HiBiT)
T1 construct: engineered by CRISPR/Cas9 to express endogenous IKZF1 (Jurkat cells) with a HiBiT tag
Source text: To measure cellular protein levels, we used cell lines that have been engineered by CRISPR/Cas9 to express endogenous CK1α (HEK293 cells) or IKZF1 (Jurkat cells) with a HiBiT tag, which when coupled with LgBiT expression forms NanoBiT, a bioluminescent protein that can be used for kinetic studies of protein degradation. […] Cell viability was also monitored with CellTiter Glo 2.0 (Promega) at the completion of the experiment to ensure that loss of protein was not a consequence of a loss of cell viability.
IKZF1-HiBiT Jurkat LgBiT stable cells were seeded at 60,000 cells/well in 50% growth media/50% CO2 independent medium supplemented with 10% FBS and 1× Endurazine substrate. […] A dose–response curve was generated by performing 3-fold dilutions of each compound including a DMSO-only control in growth media. For live cell kinetic degradation assays, diluted compounds were added to CK1α and β-catenin plates and placed in a GloMax Discover (Promega, Cat. #GM3000) preheated to 37 °C or added to IKZF1 plates and placed in a CLARIOstar Plus (BMG LABTECH) preheated to 37 °C.
Relative protein level was determined based on normalization to the DMSO control and reported at Fractional RLUs. Degradation rate and degradation maximums were calculated from Fractional RLUs as previously described[38] using GraphPad Prism software. β-catenin stabilization time of onset for each concentration curve was calculated in GraphPad Prism by fitting an unconstrained plateau followed by one phase association model using the equation below (Y = IF(X < X0, Y0,Y0+(Plateau−Y0)*(1−exp(−K*(X−X0))))). The parameter, X0 was used as time of onset for each compound concentration.

CRBN = target: T2, CRBN (Homo sapiens, UniProt Q96SW2); experiment: CRBN fluorescence polarization (FP) displacement assay; type: binding; set-up: key: % activity normalized to DMSO (0) and CC-220 (100) controls
T2 construct: 6XHis (N)
Experimental: The assay cocktail was prepared by combining 6XHis-CRBN-DDB1 protein (200 nM) and Cy5-O-Len probe (30 nM) in 20 mM HEPES pH 7, 150 mM NaCl, 0.005% Tween-20 assay buffer. […] Then 20 μL of the assay cocktail was dispensed to wells of the assay plate with a Multidrop Combi Reagent Dispenser (Thermo Fisher Scientific, USA). The plates were incubated in the dark for 1 h at room temperature and then read on an Envision plate reader (Perkin Elmer, USA). Raw intensity values for each compound at each concentration were normalized to obtain % activity using the following equation: 100×[(mean(negctrl)–compound)/(mean (negctrl)–mean (posctrl))], and then pooled from replicate experiments prior to fitting. Here, negctrl and posctrl refer to the negative (DMSO) and positive controls (CC-220) on each plate. Dose-response curves were fit to the Hill equation using the GraphPad Prism (version 10).

MOLM-13 cells = experiment: Annexin-V staining for apoptosis, wild type MOLM-13; type: cell-based, human; details: for Treatment-induced cell death (annexin-V): vs DMSO; for total apoptosis, flow cytometry: MOLM-13; for Late apoptosis, flow cytometry / Early apoptosis, flow cytometry: WT
Experimental: (§1) Wild type and CRBN^−/− MOLM-13 cells were grown in 12-well plates (TPP, Techno Plastic Products AG) with 500,000 cells per well in 2 ml total media volume. Cells were treated with 1 μl/ml DMSO or 1 μM compound in triplicate, and incubated for 24 or 72 h at 37 °C. To prepare samples, this buffer was used: 10 mM HEPES, 0.14 M NaCl, 2.5 mM CaCl2 pH 7.4, 2% v/v FBS in UltraPure water (Invitrogen). After incubation, samples were collected in 5-ml tubes for flow cytometry (Falcon). Single-stain controls consisted of ~150 μl of multiple samples combined. Wells were washed with 1 ml of buffer that was added to the corresponding sample tube. Cells were centrifuged at 500×g for 5 min at 4 °C to form a pellet. Supernatant was decanted and cells were washed again with 3 ml of buffer, then centrifuged. After decanting the supernatant, 3 μl of APC-conjugated anti-Annexin-V antibody (BioLegend) was added to each tube in the residual buffer left behind. Samples were mixed by vortex and incubated at room temperature in the dark for 20 min. Samples were then washed and centrifuged a final time, decanting the supernatant and blotting the tubes to remove residual buffer. 50 μl of buffer with DAPI was added to all appropriate samples and mixed, then analyzed by flow cytometry.
(§2) Supplementary Fig. 13: Gating for Annexin V flow cytometry analysis. Total cells were gated to remove cell debris, followed by single cell gating on the FSC-A/FSC-H diagonal. Within the single […]
(§3) Live cells are negative for both fluorescent markers, DAPI positive/APC negative cells are necrotic, APC positive/DAPI negative cells are still alive but in the early stages of apoptosis, and double positive cells are dead via apoptosis. Percentages of early and late apoptosis were plotted in supplementary figures 4 and 5.
(§4) (1 picture or pasted object on this page, not shown here)

CRBN−/− MOLM-13 cells = experiment: Annexin-V staining for apoptosis, CRBN−/− MOLM-13; type: cell-based, human; details: for Effect on viability of CRBN−/− cells (annexin-V): 1 μM; for Late apoptosis, flow cytometry / Early apoptosis, flow cytometry: CRBN-/-; for total apoptosis, flow cytometry: MOLM-13 CRBN-/-
Experimental: as §1, §2, §3, §4

[1] = SI_Fig 4c, DMSO 10.2, 11.1, 11.2

T2 sequence (Q96SW2 whole entry): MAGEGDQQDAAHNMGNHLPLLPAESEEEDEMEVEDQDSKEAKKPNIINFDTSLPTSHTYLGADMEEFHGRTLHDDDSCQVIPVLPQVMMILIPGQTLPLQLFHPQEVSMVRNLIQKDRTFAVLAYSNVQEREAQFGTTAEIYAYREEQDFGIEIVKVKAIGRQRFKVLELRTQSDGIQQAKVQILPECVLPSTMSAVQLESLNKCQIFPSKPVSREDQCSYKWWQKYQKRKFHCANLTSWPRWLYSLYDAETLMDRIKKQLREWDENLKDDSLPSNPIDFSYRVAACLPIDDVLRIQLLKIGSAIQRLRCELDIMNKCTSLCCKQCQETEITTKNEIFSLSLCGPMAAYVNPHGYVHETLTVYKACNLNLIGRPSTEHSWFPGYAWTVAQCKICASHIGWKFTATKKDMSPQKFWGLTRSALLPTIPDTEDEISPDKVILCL
T2 sequence (Q16531 whole entry partner): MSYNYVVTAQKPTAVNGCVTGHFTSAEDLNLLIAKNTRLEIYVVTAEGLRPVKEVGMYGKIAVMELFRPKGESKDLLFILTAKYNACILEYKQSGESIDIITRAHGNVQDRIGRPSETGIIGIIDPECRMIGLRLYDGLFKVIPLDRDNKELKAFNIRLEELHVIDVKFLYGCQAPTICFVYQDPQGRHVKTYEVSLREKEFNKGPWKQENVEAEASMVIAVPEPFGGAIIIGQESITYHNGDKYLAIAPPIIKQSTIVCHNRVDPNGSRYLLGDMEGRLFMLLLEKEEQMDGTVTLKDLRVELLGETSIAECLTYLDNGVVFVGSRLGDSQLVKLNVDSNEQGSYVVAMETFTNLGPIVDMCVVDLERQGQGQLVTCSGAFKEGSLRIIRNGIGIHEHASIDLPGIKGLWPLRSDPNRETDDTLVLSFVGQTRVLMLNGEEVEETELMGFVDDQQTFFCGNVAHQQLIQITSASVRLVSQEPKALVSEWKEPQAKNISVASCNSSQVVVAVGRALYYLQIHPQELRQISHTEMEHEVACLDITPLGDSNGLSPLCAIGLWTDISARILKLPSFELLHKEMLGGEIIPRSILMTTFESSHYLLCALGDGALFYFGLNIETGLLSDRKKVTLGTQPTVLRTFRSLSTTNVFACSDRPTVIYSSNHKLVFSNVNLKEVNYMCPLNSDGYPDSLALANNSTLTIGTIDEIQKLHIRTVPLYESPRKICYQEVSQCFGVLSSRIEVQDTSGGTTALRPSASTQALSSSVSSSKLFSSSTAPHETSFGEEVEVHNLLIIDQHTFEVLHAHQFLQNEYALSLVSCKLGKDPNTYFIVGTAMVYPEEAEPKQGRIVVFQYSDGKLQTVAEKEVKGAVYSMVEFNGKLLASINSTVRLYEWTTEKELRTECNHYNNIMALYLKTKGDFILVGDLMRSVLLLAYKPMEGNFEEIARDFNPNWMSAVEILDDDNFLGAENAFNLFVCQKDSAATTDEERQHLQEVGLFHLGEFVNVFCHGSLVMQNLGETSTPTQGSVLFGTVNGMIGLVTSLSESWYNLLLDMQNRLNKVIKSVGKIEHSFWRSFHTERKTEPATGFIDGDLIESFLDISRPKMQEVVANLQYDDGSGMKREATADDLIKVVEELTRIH
T1 sequence (Q13422 whole entry): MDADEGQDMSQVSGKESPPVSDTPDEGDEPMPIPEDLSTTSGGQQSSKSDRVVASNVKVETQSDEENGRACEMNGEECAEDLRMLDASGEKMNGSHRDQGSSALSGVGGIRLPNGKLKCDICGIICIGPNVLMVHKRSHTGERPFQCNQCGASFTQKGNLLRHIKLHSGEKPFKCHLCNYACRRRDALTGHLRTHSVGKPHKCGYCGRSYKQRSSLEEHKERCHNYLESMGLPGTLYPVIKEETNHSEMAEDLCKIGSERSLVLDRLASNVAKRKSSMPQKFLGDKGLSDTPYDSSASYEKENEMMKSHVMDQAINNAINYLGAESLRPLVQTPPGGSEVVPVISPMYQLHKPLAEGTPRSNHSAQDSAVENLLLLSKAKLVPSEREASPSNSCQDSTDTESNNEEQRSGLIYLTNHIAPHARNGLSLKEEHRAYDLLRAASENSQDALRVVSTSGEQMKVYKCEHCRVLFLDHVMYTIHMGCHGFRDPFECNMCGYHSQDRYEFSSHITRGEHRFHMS
T1 sequence (Q96SW2 whole entry): as the sequence (Q96SW2 whole entry) above
T1 sequence (Q16531 whole entry partner): as the sequence (Q16531 whole entry partner) above

Compound | Dmax at 10 µM (IKZF1; Jurkat) [%] | Treatment-induced cell death (annexin-V) (MOLM-13 cells; 1 μM, 72 h) | total apoptosis, flow cytometry (MOLM-13 cells; SI_Fig 4c, DMSO 9.7, 8.6, 9.8) | total apoptosis, flow cytometry (MOLM-13 cells; SI_Fig 5c, DMSO 8, 7.6, 6.1) | Late apoptosis, flow cytometry (MOLM-13 cells; SI_Fig 4b, DMSO 3, 2.7, 3) | Early apoptosis, flow cytometry (MOLM-13 cells; SI_Fig 4b, DMSO 6.8, 5.8, 6.8) | Late apoptosis, flow cytometry (MOLM-13 cells; SI_Fig 5b, DMSO 1.5, 1.2, 1.2) | Early apoptosis, flow cytometry (MOLM-13 cells; SI_Fig 5b, DMSO 6.5, 6.4, 4.9) | Effect on viability of CRBN−/− cells (annexin-V) (CRBN−/− MOLM-13 cells) | Late apoptosis, flow cytometry (CRBN−/− MOLM-13 cells; SI_Fig 4b, DMSO 3.1, 3.5, 3.3) | Early apoptosis, flow cytometry (CRBN−/− MOLM-13 cells; SI_Fig 4b, DMSO 7.1, 7.5, 7.8) | Late apoptosis, flow cytometry (CRBN−/− MOLM-13 cells; SI_Fig 5b, DMSO 1.3, 1.9, 2) | Early apoptosis, flow cytometry (CRBN−/− MOLM-13 cells; SI_Fig 5b, DMSO 4.6, 5.9, 7.6) | total apoptosis, flow cytometry (CRBN−/− MOLM-13 cells; [1]) | total apoptosis, flow cytometry (CRBN−/− MOLM-13 cells; SI_Fig 5c, DMSO 5.8, 7.8, 9.6) | further results
Cc1cccc(C(=O)Nc2ccc3c(c2)CN(C2CCC(=O)NC2=O)C3=O)c1 (centres unmarked) [SJ0040] | < 10 | increased cell death | 14.9 and 12.6 and 13.6 | 33.8 and 33.6 and 34.8 | 4.1 and 3.7 and 4.5 | 10.8 and 9 and 9.1 | 11.1 and 11.7 and 11.8 | 22.7 and 21.8 and 23.1 | no effect on the viability | 3.1 and 2.5 and 2.8 | 7.6 and 5.6 and 6 | 2 and 1.5 and 1.3 | 5.5 and 5.1 and 4.5 | 10.6 and 8.1 and 8.8 | 7.5 and 6.5 and 5.9 | IKZF1 Percent Maximum Degradation (IKZF1; listed as SJ10040): -2.54% and -2.18% and 5.17% and -2.35%; Dmax at 0.111 µM (IKZF1; Jurkat, 0.111 uM, read-out: IKZF1 Percent Maximum Degradation): 0%; CRBN binding FP, Activity (CRBN; SJ10040, [Compound] 2.71597 mM): 47.7349 and 37.554 and 42.475; CRBN binding FP, Activity (CRBN; SJ10040, [Compound] 8.14792 mM): 56.459 and 48.508 and 56.8103; CRBN binding FP, Activity (CRBN; SJ10040, [Compound] 24.44375 mM): 60.7319 and 59.4621 and 64.1617; CRBN binding FP, Activity (CRBN; SJ10040, [Compound] 73.33125 mM): 69.456 and 67.5893 and 79.2322
O=C1CCC(N2Cc3cc(Nc4noc5ccccc45)ccc3C2=O)C(=O)N1 (centres unmarked) [SJ3149] | < 10 | increased cell death | 30.6 and 31.3 and 31.4 | 81.1 and 51.1 and 84.7 | 8.5 and 9.4 and 9.1 | 22.2 and 21.9 and 22.3 | 37.1 and 24.3 and 39.1 | 44 and 26.8 and 45.7 | no effect on the viability | 2.9 and 2.8 and 2.6 | 8.1 and 7.5 and 5.1 | 2.1 and 1.7 and 2.2 | 6.7 and 6.2 and 6.6 | 10.9 and 10.4 and 7.6 | 8.8 and 7.9 and 8.7 | IKZF1 Percent Maximum Degradation (IKZF1): 11.66% and -2.50% and 4.13% and 1.42%; CRBN binding FP, Activity (CRBN; SJ3149, [Compound] 0.25625 mM): 17.1311 and 16.8724 and 13.6243; CRBN binding FP, Activity (CRBN; SJ3149, [Compound] 0.76875 mM): 34.3137 and 35.3073 and 29.4577; CRBN binding FP, Activity (CRBN; SJ3149, [Compound] 2.31250 mM): 56.4886 and 56.6964 and 54.8148; CRBN binding FP, Activity (CRBN; SJ3149, [Compound] 6.93750 mM): 75.4128 and 74.3041 and 71.3624; CRBN binding FP, Activity (CRBN; SJ3149, [Compound] 20.81250 mM): 81.1017 and 84.4669 and 74.3386; CRBN binding FP, Activity (CRBN; SJ3149, [Compound] 62.50000 mM): 71.4654 and 75.3676 and 66.9577; Cells dead or dying (annexin-V) (MOLM-13 cells; 1 μM, 72 h): ~ 80%
